Assays:
[1] = tested on: many phytopathogens and Gram-positive bacteria; conditions: cited from earlier work
[2] = tested on: Gram-positive and Gram-negative bacteria; conditions: cited from earlier work
Source text: Further studies need to be undertaken to fully assess the potency of the SacP23 by performing minimum inhibitory concentration tests for a range of sensitive bacteria. […] This indicates the diversity in antimicrobial spectra of sactipeptide-type ...

C. jejuni ATCC 81116 = type: cell-based, Campylobacter jejuni; conditions: purified SacP23, medium MHA + 5% sheep blood
C. perfringens EHE-NE18 = type: cell-based, Clostridium perfringens; conditions: purified SacP23, medium MHA
E. coli ATCC 25922 = type: cell-based; conditions: purified SacP23, medium MHA
pronase E = pronase E 1 mg ml^−1, 1 h; spot-on-lawn versus untreated sample
E. faecalis (VRE) 345/19 = type: cell-based, Enterococcus faecalis; conditions: purified SacP23, medium MRS
trypsin = trypsin 1 mg ml^−1, 1 h; spot-on-lawn versus untreated sample
[3] = tested on: L. monocytogenes192/1-2 ACM 3173; type: cell-based, Listeria monocytogenes; conditions: purified SacP23; L. monocytogenes 192/1-2 ACM 3173; medium MHA
S. aureus MRSA 344/2-24 = type: cell-based, Staphylococcus aureus
catalase = catalase 1 mg ml^−1, 1 h; spot-on-lawn versus untreated sample
lipase = lipase 1 mg ml^−1, 1 h; spot-on-lawn versus untreated sample
L. plantarum A6 = type: cell-based, Lactobacillus plantarum; conditions: purified SacP23, medium deMan, Rogosa and Sharpe (MRS)
S. aureus ATCC 25923 = type: cell-based, Staphylococcus aureus; conditions: purified SacP23, medium MHA, clear zone, 30°C 12–18 h
B. cereus ATCC 10876 = type: cell-based, Bacillus cereus; conditions: purified SacP23, medium MHA
B. subtilis BS34A = type: cell-based, Bacillus subtilis
proteinase K = proteinase K (Parengyodontium album, UniProt P06873); conditions: proteinase K 1 mg ml^−1, 1 h; spot-on-lawn versus untreated sample
[4] = tested on: S. Enteritidis ATCC 13076; type: cell-based, Salmonella Enteritidis; conditions: purified SacP23, medium MHA
[5] = isolated from a Cyanobacteria sp.; cited from earlier work
[6] = tested on: many Gram-negative bacteria including colistin-resistant Klebsiella pneumonia, E. coli, and Campylobacter species; conditions: cited from earlier work
[7] = tested on: Pseudomonas aeruginosa and K. pneumonia; conditions: cited from earlier work
[8] = tested on: Gram-negative and Gram-positive pathogens including antibiotic-resistant strains of E. coli, P. aeruginosa, Acinetobacter baumannii, K. pneumoniae, S. aureus …; conditions: cited from earlier work

Sequence of proteinase K (P06873 106-384): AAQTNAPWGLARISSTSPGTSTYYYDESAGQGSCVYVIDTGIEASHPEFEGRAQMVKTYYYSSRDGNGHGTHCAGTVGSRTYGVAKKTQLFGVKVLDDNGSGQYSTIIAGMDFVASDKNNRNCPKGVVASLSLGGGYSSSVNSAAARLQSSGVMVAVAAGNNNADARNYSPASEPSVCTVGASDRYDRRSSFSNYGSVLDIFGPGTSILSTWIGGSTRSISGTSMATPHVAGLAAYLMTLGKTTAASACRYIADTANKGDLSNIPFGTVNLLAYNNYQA

fusaricidin B
inhibitory activity [1]: inhibitory activity

subtilosin A (cyclo(NKGCATCSIGAACLVDGPIPDFEIAGATGLFGLWG); ends not checked; also: sactipeptide thioether linkages between Cys and alpha-carbons, positions not given here; UniProt O07623 9-43, looked up)
antimicrobial spectrum [2]: antimicrobial activity extending to both Gram-positive and Gram-negative bacteria

MRKLVKRSTNVGDTIEAFGCGCSCYCPCSCYCAGSLTRSSNTSRESDGSYRRDNGTGIGN [SacP23, novel sactipeptide bacteriocin from Paenibacillus polymyxa #23, heterologously expressed in B. subtilis BS34A and purified; mature structure not elucidated]
antimicrobial activity (C. jejuni ATCC 81116): − | antimicrobial activity (C. perfringens EHE-NE18): − | antimicrobial activity (E. coli ATCC 25922): − | enzymatic stability: remaining antimicrobial activity after pronase E (pronase E): sensitive | antimicrobial activity (E. faecalis (VRE) 345/19): + | enzymatic stability: remaining antimicrobial activity after trypsin (trypsin): sensitive | antimicrobial activity [3]: − | antimicrobial activity against an MRSA isolate (S. aureus MRSA 344/2-24; heterologously expressed recombinant SacP23, result in words): strong activity | antimicrobial activity (S. aureus MRSA 344/2-24; purified SacP23, S. aureus MRSA 344/2-24, medium MHA, clear zone, 30°C 12–18 h): + | enzymatic stability: remaining antimicrobial activity after catalase (catalase): resistant | enzymatic stability: remaining antimicrobial activity after lipase (lipase): resistant | antimicrobial activity (L. plantarum A6): − | antimicrobial activity (S. aureus ATCC 25923): + | antimicrobial activity (B. cereus ATCC 10876): + | antimicrobial activity (B. subtilis BS34A; purified SacP23, B. subtilis BS34A, medium MHA): + | sensitivity of the base B. subtilis expression strain (B. subtilis BS34A; recombinant SacP23, result in words): sensitive | enzymatic stability: remaining antimicrobial activity after proteinase K (proteinase K): sensitive | antimicrobial activity [4]: −

landornamide A
antiviral activity [5]: antiviral activity

Tridecaptin
activity against Gram-negative bacteria [6]: strong activity

Polymyxin
growth suppression [7]: suppress the growth

paenibacterin
antimicrobial activity [8]: antimicrobial activity

Reference: PMC10731318, “Heterologously expressed SacP23, a novel bacteriocin from Paenibacillus polymyxa #23, is active against methicillin resistant Staphylococcus aureus” (Royal Society Open Science, 2023)
